Source: US5219884A, “Immunosuppressant” (Taito Co., Ltd., priority 1990, dated 1993)
Read-outs that look alike come from different tables or passages of the source.

Assays:
[1] = cytotoxicity to tumor cell line MOLT4; assay type: cell-based, human; conditions: human, molt4 cells, read-out: Suppression
Method: (§1) Cytotoxicity to human tumor cell lines was examined as follows:
(§2) Cells of human cell lines, K562, MOLT4, U937, HL60, KATOIII, KB, PC-6, PC-14 and CCRF-CEM were separately suspended to the concentration of 2×10^5 cells/ml in the RPMI1640 culture medium supplemented with 20% FCS. Fifty μl of this suspension was added to each well of 96-well microculture plates to which 50 μl of the test solution had been added. After culturing at 37° C. in an atmosphere of 5% carbon dioxide for 72 hours, the absorbancy at 550 nm was measured in the same way as the colorimetry using MTT in Experimental Example 1, and the percent suppression was calculated in the same manner as in Experimental Example 14, which was used as the index of cytotoxicity.

MOLT4 = assay: cytotoxicity to tumor cell line MOLT4; assay type: cell-based, human
Method: as §1, §2

[2] = system: IL2-dependent mouse cell line CTLL-2; assay: suppression of IL-2 induced 3H-thymidine incorporation of CTLL-2; assay type: cell-based; conditions: 72 hrs, second run (control 30168 cpm)
Method: IL2-dependent mouse cell line CTLL-2 cells were suspended in the RPMI1640 culture medium supplemented with 30% FCS to a concentration of 2×10^5 cells/ml. The suspension (50 μl) and 50 μl of concanavalin A-stimulated rat spleen cell culture supernatants containing IL2 were added to each well of 96-well microculture plates in which 100 μl of the test substance had been placed. After culturing at 37° C. in an atmosphere of 5% carbon dioxide for 20, 44, or 68 hours, 0.5 μCi/well of ^3 H-thymidine was added, and cultured for 4 hours under the same conditions. After termination of the culture, the cells were harvested by a cell harvester, and the radioactivity incorporated into the cells was measured by a liquid scintillation counter.

[3] = cytotoxicity to mouse L929 cells; assay type: cell-based; conditions: mouse, l929 cells, read-out: Suppression
Method: (§3) Cytotoxicity to mouse L929 cells was assayed as follows:
(§4) L929 cells were suspended to the concentration of 1.5×10^5 cells/ml in the F12 culture medium supplemented with 10% FCS. One hundred μl of the suspension was added to each well of 96-well microculture plates, and cultured at 37° C. in an atmosphere of 5% carbon dioxide for 24 hours, to which 100 μl of the test solution was added and cultured for further 48 hours. After the culture, 100 μl of the supernatant was removed and the absorbancy at 550 nm was measured in the same way as the colormetry using MTT in Experimental Example 1. The percent suppression was calculated by the following formula used as the index of cytotoxicity. [formula]

mouse L929 cells = assay: cytotoxicity to mouse L929 cells; assay type: cell-based; conditions: 550 nm
Method: as §3, §4

CCRF-CEM = assay: in vitro; assay type: cell-based, human
Method: as §1, §2

PC-14 = assay: in vitro; assay type: cell-based, human
Method: as §1, §2

in vitro = assay type: cell-based, human; conditions: human, read-out: Suppression
Method: as §1, §2

HL60 = assay: in vitro; assay type: cell-based, human
Method: as §1, §2

K562 = assay: in vitro; assay type: cell-based, human
Method: as §1, §2

U937 = assay: in vitro; assay type: cell-based, human
Method: as §1, §2

KB = assay: in vitro; assay type: cell-based, human
Method: as §1, §2

## CCCCCCC(=O)CCCCCCCCCC(O)C(O)C(N)(CO)C(=O)O (centres unmarked) [Example 5]
[1]; 0.1 μg/ml
  cytotoxicity at 72 h: 4.7%
[1]; 1.0 μg/ml
  cytotoxicity at 72 h: 5.2%
[1]; 10.0 μg/ml
  cytotoxicity at 72 h: 18.1%
MOLT4; 0.1 μg/ml
  Absorbancy: 0.591
MOLT4; 1.0 μg/ml
  Absorbancy: 0.588
MOLT4; 10.0 μg/ml
  Absorbancy: 0.508
[2]; 0.1 μg/ml
  3H-thymidine uptake: 26108 cpm
[2]; 1 μg/ml
  3H-thymidine uptake: 1532 cpm
[2]; Mus musculus, CTLL-2, 0.1 μg/ml, read-out: Suppression
  inhibition at 0.1 µg/mL: 13.5%
[2]; Mus musculus, CTLL-2, 1 μg/ml
  inhibition at 1 µg/mL: 95.1%
[3]; 0.1 μg/ml
  cytotoxicity at 48 h: 0%
[3]; 1 μg/ml
  cytotoxicity at 48 h: 0%
[3]; 10 μg/ml
  cytotoxicity at 48 h: 0%
Mouse L929 cells; 0.1 μg/ml
  Absorbancy: 0.775
Mouse L929 cells; 1 μg/ml
  Absorbancy: 0.805
Mouse L929 cells; 10 μg/ml
  Absorbancy: 0.749
CCRF-CEM; 0.1 μg/ml
  Absorbancy: 0.485
CCRF-CEM; 1.0 μg/ml
  Absorbancy: 0.466
CCRF-CEM; 10.0 μg/ml
  Absorbancy: 0.394
PC-14; 0.1 μg/ml
  Absorbancy: 0.420
PC-14; 1.0 μg/ml
  Absorbancy: 0.396
PC-14; 10.0 μg/ml
  Absorbancy: 0.352
In vitro; ccrf-cem cells, 0.1 μg/ml
  cytotoxicity at 72 h: 3.6%
In vitro; ccrf-cem cells, 1.0 μg/ml
  cytotoxicity at 72 h: 7.4%
In vitro; ccrf-cem cells, 10.0 μg/ml
  cytotoxicity at 72 h: 21.7%
In vitro; hl60 cells, 0.1 μg/ml
  cytotoxicity at 72 h: 20.5%
In vitro; hl60 cells, 1.0 μg/ml
  cytotoxicity at 72 h: 11.9%
In vitro; hl60 cells, 10.0 μg/ml
  cytotoxicity at 72 h: 20.9%
In vitro; k562 cells, 0.1 μg/ml
  cytotoxicity at 72 h: 1.6%
In vitro; k562 cells, 1.0 μg/ml
  cytotoxicity at 72 h: 3.1%
In vitro; k562 cells, 10.0 μg/ml
  cytotoxicity at 72 h: 6.7%
In vitro; kb cells, 0.1 μg/ml
  cytotoxicity at 72 h: 0%
In vitro; kb cells, 1.0 μg/ml
  cytotoxicity at 72 h: 0%
In vitro; kb cells, 10.0 μg/ml
  cytotoxicity at 72 h: 2.6%
In vitro; pc-14 cells, 0.1 μg/ml
  cytotoxicity at 72 h: 11.4%
In vitro; pc-14 cells, 1.0 μg/ml
  cytotoxicity at 72 h: 16.5%
In vitro; pc-14 cells, 10.0 μg/ml
  cytotoxicity at 72 h: 25.7%
In vitro; u937 cells, 0.1 μg/ml
  cytotoxicity at 72 h: 4.5%
In vitro; u937 cells, 1.0 μg/ml
  cytotoxicity at 72 h: 0%
HL60; 0.1 μg/ml
  Absorbancy: 0.593
HL60; 1.0 μg/ml
  Absorbancy: 0.657
HL60; 10.0 μg/ml
  Absorbancy: 0.590
K562; 0.1 μg/ml
  Absorbancy: 0.823
K562; 1.0 μg/ml
  Absorbancy: 0.810
K562; 10.0 μg/ml
  Absorbancy: 0.780
U937; 0.1 μg/ml
  Absorbancy: 0.462
U937; 1.0 μg/ml
  Absorbancy: 0.485
KB; 0.1 μg/ml
  Absorbancy: 0.761
KB; 1.0 μg/ml
  Absorbancy: 0.734
KB; 10.0 μg/ml
  Absorbancy: 0.711
